Laboratory results: PubChem BioAssay AID2060887 (Molecular Pharmacology Branch, DTP, NCI, 2025)
Values belong to the compound of their own block, whether it stands above or below them.

Tested on: 782815-120-R-J1-PDC complex spheroid viability
Experiment: Anticancer human tumor 782815-120-R-J1-PDC patient-derived colon adenocarcinoma cell line growth inhibition [RAS]
Conditions: for IC50: curve of first compound; for viability, T/C: stronger effect = lower value
Summary of the method: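 Agents were tested in combination matrices in half-log decrements from a top concentration at or near clinical Cmax (10 microM if undetermined). Targets were multi-cell spheroids of tumour lines plus HUVEC and MSC stromal cells.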

[1] = second compound 0.000949 µM, first compound 0.0316 µM
[2] = second compound 0.000949 µM, first compound 0.1 µM
[3] = second compound 0.000949 µM, first compound 0.316 µM
[4] = second compound 0.000949 µM, first compound 1 µM
[5] = second compound 0.003 µM, first compound 0.0316 µM
[6] = second compound 0.003 µM, first compound 0.1 µM
[7] = second compound 0.003 µM, first compound 0.316 µM
[8] = second compound 0.003 µM, first compound 1 µM
[9] = second compound 0.00949 µM, first compound 0.0316 µM
[10] = second compound 0.00949 µM, first compound 0.1 µM
[11] = second compound 0.00949 µM, first compound 0.316 µM
[12] = second compound 0.00949 µM, first compound 1 µM
[13] = second compound 0.03 µM, first compound 0.0316 µM
[14] = second compound 0.03 µM, first compound 0.1 µM
[15] = second compound 0.03 µM, first compound 0.316 µM
[16] = second compound 0.03 µM, first compound 1 µM
[17] = second compound 0.0949 µM, first compound 0.0316 µM
[18] = second compound 0.0949 µM, first compound 0.1 µM
[19] = second compound 0.0949 µM, first compound 0.316 µM
[20] = second compound 0.0949 µM, first compound 1 µM
[21] = second compound 0.3 µM, first compound 0.0316 µM
[22] = second compound 0.3 µM, first compound 0.1 µM
[23] = second compound 0.3 µM, first compound 0.316 µM
[24] = second compound 0.3 µM, first compound 1 µM
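Further: spheroids exposed to compounds for 7 days before reading.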
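Wherever viability, T/C is given: 100% = DMSO vehicle control viability.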

- IC50 (second compound 0.000949 µM): 2.4 nM
- IC50 (second compound 0.003 µM): 1.92 nM
- IC50 (second compound 0.00949 µM): < 0.949 nM
- IC50 (second compound 0.03 µM): < 0.949 nM
- IC50 (second compound 0.0949 µM): < 0.949 nM
- IC50 (second compound 0.3 µM): < 0.949 nM
SMILES: CCc1c2c(nc3ccc(O)cc13)-c1cc3c(c(=O)n1C2)COC(=O)[C@]3(O)CC + CCn1c(-c2cc(N3CCN(C)CC3)cnc2C(C)OC)c2c3cc(ccc31)-c1csc(n1)CC(NC(=O)C1CC1C)C(=O)N1CCCC(N1)C(=O)OCC(C)(C)C2
- viability, T/C (second compound 0.000949 µM, first compound 0.000949 µM): 70.4%
- viability, T/C (second compound 0.000949 µM, first compound 0.003 µM): 45.9%
- viability, T/C (second compound 0.000949 µM, first compound 0.00949 µM): 19.8%
- viability, T/C (second compound 0.000949 µM, first compound 0.03 µM): 10.8%
- viability, T/C (second compound 0.000949 µM, first compound 0.0949 µM): 3.9%
- viability, T/C (second compound 0.000949 µM, first compound 0.3 µM): 1.57%
- viability, T/C (second compound 0.003 µM, first compound 0.000949 µM): 66.6%
- viability, T/C (second compound 0.003 µM, first compound 0.003 µM): 38.8%
- viability, T/C (second compound 0.003 µM, first compound 0.00949 µM): 23.4%
- viability, T/C (second compound 0.003 µM, first compound 0.03 µM): 12.9%
- viability, T/C (second compound 0.003 µM, first compound 0.0949 µM): 4.38%
- viability, T/C (second compound 0.003 µM, first compound 0.3 µM): 1.89%
- viability, T/C (second compound 0.00949 µM, first compound 0.000949 µM): 32.7%
- viability, T/C (second compound 0.00949 µM, first compound 0.003 µM): 28.5%
- viability, T/C (second compound 0.00949 µM, first compound 0.00949 µM): 15.4%
- viability, T/C (second compound 0.00949 µM, first compound 0.03 µM): 12.7%
- viability, T/C (second compound 0.00949 µM, first compound 0.0949 µM): 7.05%
- viability, T/C (second compound 0.00949 µM, first compound 0.3 µM): 1.84%
- viability, T/C (second compound 0.03 µM, first compound 0.000949 µM): 19.6%
- viability, T/C (second compound 0.03 µM, first compound 0.003 µM): 16.7%
- viability, T/C (second compound 0.03 µM, first compound 0.00949 µM): 11.7%
- viability, T/C (second compound 0.03 µM, first compound 0.03 µM): 10.4%
- viability, T/C (second compound 0.03 µM, first compound 0.0949 µM): 6.53%
- viability, T/C (second compound 0.03 µM, first compound 0.3 µM): 1.73%
- viability, T/C (second compound 0.0949 µM, first compound 0.000949 µM): 15.5%
- viability, T/C (second compound 0.0949 µM, first compound 0.003 µM): 16.3%
- viability, T/C (second compound 0.0949 µM, first compound 0.00949 µM): 11.7%
- viability, T/C (second compound 0.0949 µM, first compound 0.03 µM): 10.5%
- viability, T/C (second compound 0.0949 µM, first compound 0.0949 µM): 7.5%
- viability, T/C (second compound 0.0949 µM, first compound 0.3 µM): 0.75%
- viability, T/C (second compound 0.3 µM, first compound 0.000949 µM): 14.3%
- viability, T/C (second compound 0.3 µM, first compound 0.003 µM): 13.6%
- viability, T/C (second compound 0.3 µM, first compound 0.00949 µM): 10.7%
- viability, T/C (second compound 0.3 µM, first compound 0.03 µM): 13.1%
- viability, T/C (second compound 0.3 µM, first compound 0.0949 µM): 7.92%
- viability, T/C (second compound 0.3 µM, first compound 0.3 µM): 1.5%

- IC50 (second compound 0.000949 µM): < 31.6 nM
- IC50 (second compound 0.003 µM): < 31.6 nM
- IC50 (second compound 0.00949 µM): < 31.6 nM
- IC50 (second compound 0.03 µM): < 31.6 nM
- IC50 (second compound 0.0949 µM): < 31.6 nM
- IC50 (second compound 0.3 µM): < 31.6 nM
SMILES: CC(=O)OC12COC1CC(O)C1(C)C(=O)C(O)C3=C(C)C(OC(=O)C(O)C(NC(=O)OC(C)(C)C)c4ccccc4)CC(O)(C(OC(=O)c4ccccc4)C21)C3(C)C (stereo unspecified) + CCn1c(-c2cccnc2C(C)OC)c2c3cc(ccc31)N1CCOC(CC(NC(=O)C(C(C)C)N(C)C(=O)C3(F)CCN(C(=O)C#CC(C)(C)N(C)C)CC3)C(=O)N3CCCC(N3)C(=O)OCC(C)(C)C2)C1
- viability, T/C [1]: 31.7%
- viability, T/C [2]: 27.2%
- viability, T/C [3]: 28.5%
- viability, T/C [4]: 30.2%
- viability, T/C (second compound 0.000949 µM, first compound 3.16 µM): 27.4%
- viability, T/C (second compound 0.000949 µM, first compound 10 µM): 32.5%
- viability, T/C [5]: 33.1%
- viability, T/C [6]: 26.5%
- viability, T/C [7]: 28.2%
- viability, T/C [8]: 32.6%
- viability, T/C (second compound 0.003 µM, first compound 3.16 µM): 27.9%
- viability, T/C (second compound 0.003 µM, first compound 10 µM): 30.2%
- viability, T/C [9]: 29%
- viability, T/C [10]: 29.7%
- viability, T/C [11]: 29.9%
- viability, T/C [12]: 32.5%
- viability, T/C (second compound 0.00949 µM, first compound 3.16 µM): 26.1%
- viability, T/C (second compound 0.00949 µM, first compound 10 µM): 28.2%
- viability, T/C [13]: 34.2%
- viability, T/C [14]: 29.4%
- viability, T/C [15]: 24%
- viability, T/C [16]: 27.7%
- viability, T/C (second compound 0.03 µM, first compound 3.16 µM): 29.5%
- viability, T/C (second compound 0.03 µM, first compound 10 µM): 27.7%
- viability, T/C [17]: 28.6%
- viability, T/C [18]: 29.9%
- viability, T/C [19]: 25.7%
- viability, T/C [20]: 31.2%
- viability, T/C (second compound 0.0949 µM, first compound 3.16 µM): 26%
- viability, T/C (second compound 0.0949 µM, first compound 10 µM): 26.7%
- viability, T/C [21]: 22.7%
- viability, T/C [22]: 27.9%
- viability, T/C [23]: 23.3%
- viability, T/C [24]: 21.9%
- viability, T/C (second compound 0.3 µM, first compound 3.16 µM): 25.2%
- viability, T/C (second compound 0.3 µM, first compound 10 µM): 24.4%

- IC50 (second compound 0.000949 µM): 24.1 nM
- IC50 (second compound 0.003 µM): 5.51 nM
- IC50 (second compound 0.00949 µM): < 3.16 nM
- IC50 (second compound 0.03 µM): < 3.16 nM
- IC50 (second compound 0.0949 µM): < 3.16 nM
- IC50 (second compound 0.3 µM): < 3.16 nM
SMILES: O=C(c1ccc(F)c(F)c1Nc1ccc(I)cc1F)N1CC(O)([C@@H]2CCCCN2)C1 + CCn1c(-c2cc(N3CCN(C)CC3)cnc2C(C)OC)c2c3cc(ccc31)-c1csc(n1)CC(NC(=O)C1CC1C)C(=O)N1CCCC(N1)C(=O)OCC(C)(C)C2
- viability, T/C (second compound 0.000949 µM, first compound 0.00316 µM): 75.1%
- viability, T/C (second compound 0.000949 µM, first compound 0.01 µM): 64.1%
- viability, T/C [1]: 46.5%
- viability, T/C [2]: 23.2%
- viability, T/C [3]: 13%
- viability, T/C [4]: 1.01%
- viability, T/C (second compound 0.003 µM, first compound 0.00316 µM): 59.4%
- viability, T/C (second compound 0.003 µM, first compound 0.01 µM): 37.5%
- viability, T/C [5]: 32.3%
- viability, T/C [6]: 17.9%
- viability, T/C [7]: 6.64%
- viability, T/C [8]: 0.53%
- viability, T/C (second compound 0.00949 µM, first compound 0.00316 µM): 28.2%
- viability, T/C (second compound 0.00949 µM, first compound 0.01 µM): 24.9%
- viability, T/C [9]: 13.7%
- viability, T/C [10]: 8.14%
- viability, T/C [11]: 1.43%
- viability, T/C [12]: 0.48%
- viability, T/C (second compound 0.03 µM, first compound 0.00316 µM): 12.3%
- viability, T/C (second compound 0.03 µM, first compound 0.01 µM): 9.75%
- viability, T/C [13]: 3.83%
- viability, T/C [14]: 1.67%
- viability, T/C [15]: 0.8%
- viability, T/C [16]: 0.47%
- viability, T/C (second compound 0.0949 µM, first compound 0.00316 µM): 5.71%
- viability, T/C (second compound 0.0949 µM, first compound 0.01 µM): 2.85%
- viability, T/C [17]: 2.06%
- viability, T/C [18]: 1.08%
- viability, T/C [19]: 0.77%
- viability, T/C [20]: 0.49%
- viability, T/C (second compound 0.3 µM, first compound 0.00316 µM): 6.59%
- viability, T/C (second compound 0.3 µM, first compound 0.01 µM): 1.81%
- viability, T/C [21]: 1.42%
- viability, T/C [22]: 0.75%
- viability, T/C [23]: 0.63%
- viability, T/C [24]: 0.61%
